Reference: patent US11344601B2, “Tumor microenvironment-related target TAK1 and application thereof in inhibition of tumor” (Shanghai Institutes for Biological Sciences, Chinese …, priority 2017, dated 2022)

What was measured:
[1] = tested on: PC3/PSC27 xenograft tumors; experiment: Time-extended preclinical treatment, survival of PC3/PSC27 tumor-bearing mice; format: in vivo
Protocol: In the preclinical chemotherapy trial, mice subcutaneously transplanted with tumors were fed standard experimental diet. After 2 weeks, the chemotherapeutics mitoxantrone (dose of 0.2 mg/kg) and/or SASP inhibitors (500 μl, dose of 10 mg/kg, RAD001, SB203580 and 5Z-7 were purchased from Tocris; LYTAK, purchased from Lilly Co ((Indianapolis, Ind.), 5 mg/kg) were administrated intraperitoneally. The timepoint was the first day of Week 3, 5, 7, and the whole course of treatment was composed of three cycles of administration, each cycle lasted for 2 weeks. After the course of treatment, mouse […] was collected for tumor measurement and histological analysis. Each mouse received cumulatively 0.6 mg mitoxantrone/kg body weight and 30 mg SASP inhibitor/kg body (15 mg/kg body weight for LYTAK1). […]
Although there was no ectopic metastasis of cancer cells, the current inventor questions whether the microenvironment causes other pathological consequences other than tumor growth and drug resistance. To this end, the present inventor evaluated the survival of multiple groups of animals under a batch of time-extended preclinical treatment conditions to determine the objective results of tumor progression. All animals were monitored for tumor volume and recognized as severe disease when the tumor volume reached a certain upper limit (size 2000 mm^3).

p38MAPK, JNK, ATM = experiment: Western blot of JNK, p38MAPK and ATM phosphorylation in damaged stromal cells; format: cell-based, human; details: Day 7 after bleomycin and/or 5Z-7
Protocol: The nitrocellulose filter membrane was blocked at room temperature for 1 h in the blocking solution (TBST containing 5% skim milk powder (0.1% Tween-20 in TBS)), incubated overnight at 4° C. in a primary antibody solution, rinsed at TBST room temperature for 3 times, each for 2 min. The corresponding secondary antibody conjugated with HRP prepared with the blocking solution was added, the filter membrane was incubated at room temperature for 0.5 h. The filter membrane was rinsed with PBST at room temperature for 3 times, each for 2 min.

[2] = tested on: prostate cancer epithelial cell lines (BPH1, M12, PC3, DU145 and LNCaP); experiment: Chemotherapy resistance of cancer cells conferred by extracellular fluid of damaged PSC27 stromal cells; format: cell-based, human; details: stromal cells treated with TAK1 inhibitor
Protocol: c. Experimental Treatment In Vitro • 100 nM docetaxel (DTX), 100 nM paclitaxel (PTX), 200 nM vincristine (VCR), 50 μg/ml bleomycin (BLEO), 1 μM mitoxantrone (MIT), or 10 Gy ^137CS ionizating radiation (γ-radiation at 743 rad/min, RAD) was added to the culture medium when PSC27 cells grown to 80% (PSC27-Pre) to produce cell damage. After drug treatment for 6 hours, the cells were simply washed by PBS for 3 times and kept in the culture medium for 7 to 10 days, followed by subsequent experiments. 2. Plasmid Preparation and Lentiviral Transfection • Full-length human IKKα and Flag were cloned as a fusion protein between the restriction sites BamHI and XbaI in the expression vector pCR3.1. Full-length human mTOR and GST were cloned as a fusion protein between a pair of NotI restriction sites in the expression vector pcDNA3. Packaging cell line 293FT was used for cell transfection and lentivirus production. […] FV1000 laser scanning confocal microscopy (Olympus) was used to obtain cellular confocal fluorescence images to determine the extent of DNA damage. • Antibody anti-TAK1 used for histological IHC staining in clinical prostate, non-small cell lung cancer patients and breast cancer patients, was purchased from Proteintech, idib. […] Quantitative PCR for Measuring Gene Expression […]

COc1cc(O)c2c(c1)/C=C/C[C@H](O)[C@H](O)C(=O)/C=C\C[C@H](C)OC2=O [5Z-7, 5z-7-oxozeaenol] was tested, and the survival of mice ([1]; 5Z-7 alone) was “only slightly prolonged”, the “prolongation of disease-free survival” value ([1]; MIT/5Z-7 combination vs mitoxantrone alone, severe disease at tumor size 2000 mm^3) was “about 50%” and the “phosphorylation of JNK and p38MAPK” value (p38MAPK, JNK, ATM) was “decreased significantly”. For the same compound, the “phosphorylation status of ATM stimulated by DNA damage” value (p38MAPK, JNK, ATM) was “does not depend on whether TAK1 activity is inhibited”, the “resistance of cancer cells to docetaxel conferred by stromal cell extracellular fluid” value ([2]; docetaxel) was “attenuate the acquired resistance” and the “resistance of cancer cells to mitoxantrone conferred by stromal cell extracellular fluid” value ([2]; mitoxantrone at IC50 concentration) was “significantly weakened”.
